The text below walks through data of patent US20240417429A1, “COMPOSITIONS AND METHODS FOR SKIPPING EXON 45 IN DUCHENNE MUSCULAR DYSTROPHY” (Entrada Therapeutics, Inc., priority 2021, published 2024).

In test [1] the test system is exon 45. The note with it: RMS cells, 24 hr incubation; for Exon Skipping Efficacy (%) with 5 μM AC: 5 μM AC with Endo-Porter; for Exon Skipping Efficacy (%) with 10 μM AC: 10 μM AC with Endo-Porter. How it is done: Cell Culture and Treatment: This study eruploys human rhabdomyosarcorna cells (RMS cells, ATCC CRL-2061. RMS cells were cultured in T75 flasks in RP 11640 (ATCC) medium with addition of 10% FBS (VWR) and Ix Penicillin-Streptormycin (VWR) under conditions of 37° C. and 5% CO2. 1×10^5 RMS cells were seeded per well in RPMII 640 full medium in 24-well plates for overnight. The next day the culture medium was replaced with 1 mL. fresh medium 5 μM or 10 μM of an AC from Table 8 was added to the cell culture and swirled to mix. Subsequently, 6 μL of Endo-Porter (Gene-tools) was added to the cell culture per well (1 mL of culture medium) and immediately swirled to mix. […] The cells were allowed to stand at room temperature for 5 minutes for cell lysis and pipetted a few times for a thorough mix. The lysates were collected in the Sample Tube RB (QIAGEN).
RNA Extraction: The RNA was extracted using QIAcube following the protocol from the manufacture. The concentration of the total RNA was determined using a NanoDrop 8000 (Thermo Fisher Scientific).
Nested PCR: Nested PCR was performed with 200 ng of the extracted total RNA and QIAGEN OneStep RT-PCR Kits for the primary amplification. A reaction solution of 50 μL was prepared following manufacture's protocol with DMD specific primers
The RT-PCR program used is as follows:
The secondary amplification PCR reaction was prepared using OneTaq® Hot Start 2X Master Mix following manufacture's protocol
Gel Electrophoresis Analysis for Exon Skipping Efficiency: 4 μL of the PCR product above was analyzed by 2% E-gel (Invitrogen′™) and imaged with E-Gel™ Power Snap Electrophoresis System (Thermo Fisher Scientific). The intensities of the skipped and full-length bands were analyzed. The polynucleotide level “A” of the band with exon 45 skipping and the polynucleotide level “B” of the band without exon 45 skipping were measured using ImageJ. 181 Based on these measurement values of “A” and “B”, the skipping efficiency was determined by the following equation: Skipping efficiency (%)=A/(A+B)'100.

Test [2] relates to D2/MDX mice. Conditions: PMO only, Q2W IV; 2 to 12 weeks.
In test [3] the test system is D2/MDX mice. The note with it: Q2W IV; at 12 weeks vs pre-dose. How it is done:
Grip strength was measured at pre-dose (FIG. 11A) and at 12 weeks (FIG. 11B).

Test [4] relates to D2/MDX mice. The note with it: Q2W IV; 4, 8 and 12 weeks post-treatment. As for the experimental part: Serum CK was determined at 4 time points: pre-dose, and at 4, 8 and 12 weeks.

In the case of “5′-AATGCCATCCTGGAGTTCCTG-3′ [D45-21mer-n3]”, in test [1], the “Exon Skipping Efficacy (%) with 5 μM AC” value was 41.8% and the “Exon Skipping Efficacy (%) with 10 μM AC” value is 52.7%.
The corresponding values for “5′-ATGCCATCCTGGAGTTCCTGT-3′ [D45-21mer-n4]” are 42.6% and 52.0%.
The corresponding values for “5′-ATGCCATCCTGGAGTTCCTGTA-3′ [D45-22mer-n5]” are 36.8% and 50.9%.
In the same order, the values of “5′-CAATGCCATCCTGGAGTTCCTGT-3′ [D45-23mer-n4]” are 35.3% and 45.3%.
Regarding “5′-CCCAATGCCATCCTGGAGTTCC-3′ [D45-22mer-n1]”, in test [1], the “Exon Skipping Efficacy (%) with 5 μM AC” value came out at 45.1% and the “Exon Skipping Efficacy (%) with 10 μM AC” value is recorded as 62.3%.
In the same order, the values of “5′-CCCAATGCCATCCTGGAGTTCCT-3′ [D45-23mer-n2]” are 46.4% and 58.2%.
The corresponding values for “5′-CCCAATGCCATCCTGGAGTTCCTG-3′ [D45-24mer-n3]” are 44.2% and 52.3%.
On to “5′-CCCAATGCCATCCTGGAGTTCCTGT-3′ [D45-25mer-n4]”, for which, in test [1], the “Exon Skipping Efficacy (%) with 5 μM AC” value came out at 37.6% and the “Exon Skipping Efficacy (%) with 10 μM AC” value amounted to 42.6%.
In the same order, the values of “5′-CCGCTGCCCAATGCCATCCTG-3′ [D45-21mer-6]” are 45.9% and 59.5%.
The corresponding values for “5′-CCGCTGCCCAATGCCATCCTGGAG-3′ [D45-24mer-3]” are 37.2% and 40.8%.
The corresponding values for “5′-GCCCAATGCCATCCTGGAGTTCC-3′ [D45-23mer-n1]” are 39.6% and 54.4%.
Take “5′-GGCCAAACCTCGGCTTACCTGAAAT-3′ [PMO-MDX23]”: the “Wire hang time, PMO treatment alone” value in test [2] is listed as “following the same trends as the vehicle D2.mdx group”. Moreover, the Grip strength result in test [3] was “no significant improvement”. The “Serum CK” value in test [4] is “no significant decrease”.
As to “5′-TGCCCAATGCCATCCTGGAGTTCCT-3′ [D45-25mer-n2]”, in test [1], the “Exon Skipping Efficacy (%) with 5 μM AC” value stood at 44.0% and the “Exon Skipping Efficacy (%) with 10 μM AC” value is on record as 48.8%.
